Test [1] concerns the target T1, Peptidyl-prolyl cis-trans isomerase FKBP1A (Homo sapiens, UniProt P62942). Put plainly: Percent inhibition towards recombinant FK506 binding protein 12 to determine the FKBP binding property at a concentration of 100 uM.
Test [2] concerns the target T1, Peptidyl-prolyl cis-trans isomerase FKBP1A. The test can be described thus: Binding affinity towards recombinant FK506 binding protein 12 to determine the FKBP binding property of the compound.

For orientation: inhibition means the drop in the measured response relative to a control, in per cent. As a reminder, the IC50 is the concentration that gives 50% inhibition.

T1 sequence (P62942 whole entry): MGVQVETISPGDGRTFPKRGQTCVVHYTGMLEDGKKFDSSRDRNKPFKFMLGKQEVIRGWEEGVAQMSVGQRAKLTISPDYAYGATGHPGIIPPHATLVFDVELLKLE

As to `COc1ccc(CCCCOC(=O)[C@@H]2CCCCN2C(=O)C(C)c2cc(OC)c(OC)c(OC)c2)cc1` (stereo not given in full), the inhibition in test [1] was 47%.

As for `COc1ccc(CCCCOC(=O)[C@@H]2CCCCN2C(=O)Cc2cc(OC)c(OC)c(OC)c2)cc1`, the inhibition in test [1] was 52%.

For the compound `C=C(C(=O)N1CCCC[C@H]1C(=O)OCCCCc1ccc(OC)cc1)c1cc(OC)c(OC)c(OC)c1`, the inhibition in test [1] was 39%.

Consider `COc1ccc(CCCCOC(=O)[C@@H]2CCCCN2C(=O)C(=O)c2cc(OC)c(OC)c(OC)c2)cc1`, for which the inhibition in test [1] worked out at 90%. In addition, in test [2], the IC50 was 16 µM.

Source of the values: ChEMBL document CHEMBL1127287, “Synthesis and FKBP binding of small molecule mimics of the tricarbonyl region of FK506” (Bioorg Med Chem Lett, 1994).
